# Values of other authors, collected in patent publication US9370540B2, “K2 composition and the preparation method and use of the same” (SINPHAR PHARMACEUTICAL CO., LTD., priority 2014, dated 2016).
# Test system: A549 cells
# Conditions: from Molecular Carcinogenesis papers
structure (smiles),measurement,value
C=C(CC[C@@H](C(=O)O)[C@H]1[C@H](O)C[C@@]2(C)C3=CC[C@H]4C(C)(C)C(=O)CC[C@]4(C)C3=CC[C@]12C)C(C)C [polyporenic acid C],"IC50, inhibiting the growth of lung cancer cells",about 15 μg/ml
